Data on 1 compound can be found in patent US10028999B2, “PAR-1 based therapeutic conjugates and uses thereof” (TEL HASHOMER MEDICAL RESEARCH INFRASTRUCTURE AND SERVICES …, priority 2014, dated 2018).

Peptide text beside a SMILES is read from it. * marks the point of attachment. Tos = Cc1ccc(S(=O)(=O)*)cc1; CH2Cl = ClC* Where only a bound is given, the exact number is not on record here.

Holding throughout (assay type): biochemical
In data set [1] the test system is blood coagulation (aPTT). In words: Activated partial thromboplastin time test. The settings on record: for aPTT: without conjugate 30.5.
The test system of data set [2] is thrombin. Nature of the data set: Thrombin time test. The settings on record: for TT: without conjugate 13.4.
The test system of data set [3] is blood coagulation (prothrombin time). Nature of the data set: Prothrombin time test. The conditions noted are these: for PT: without conjugate 11.5.
The mark [4] stands for this setting: 100 μM, most potent (1) to least potent (5).

Consider `Cc1ccc(S(=O)(=O)N[C@@H](CC(C)C)C(=O)N[C@@H](CC(=O)O)C(=O)N2CCC[C@H]2C(=O)N[C@@H](CCCNC(=N)N)C(=O)CCl)cc1` [4AA, tosyl-LDPR-CK] (Tos-LDPR-CH2Cl), for which the results for the aPTT in data set [1] (10 nM), in data set [1] (1 μM) and in data set [1] (100 μM) were 30.8 s, 30.9 s and 42.6 s, respectively. Moreover, the “Potency score in aPTT test” value in data set [1] (setting [4]) was 5. Further, the TT was 13.5 s in data set [2] (10 nM), 14.6 s in data set [2] (1 μM) and greater than 80 s in data set [2] (100 μM). In addition, the “Potency score in TT test” value in data set [2] (1 μM, most potent (1) to least potent (5)) is 5. Moreover, the PT in data set [3] (10 nM) is 11.5 s; in data set [3] (1 μM) it was 11.4 s; in data set [3] (100 μM), 12.7 s. For the same compound, the “Potency score in PT test” value in data set [3] (setting [4]) stood at 5.
